Test results from ChEMBL document CHEMBL1201862, “PubChem BioAssay data set” (2004).
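96-well plates; 48 h exposure; 5 concentrations. Endpoints by linear interpolation between flanking doses. Not reached: highest tested concentration assigned. GI50 = concentration required for 50% inhibition of growth.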 Activity calls are given as the source filed them. Cut-off read from the data, not from the text of the source: active = GI50 up to about 1.1 µM and inactive = higher.

How the values were obtained:
Assay in all cases: growth of human tumour cells (NCI), 48 h
M14 = test system: M14
NCI-H522 = test system: NCI-H522
SK-MEL-5 = test system: SK-MEL-5
MDA-MB-231 = test system: MDA-MB-231
HOP-92 = test system: HOP-92
SF-295 = test system: SF-295
HT-29 = test system: HT-29
BT-549 = test system: BT-549
EKVX = test system: EKVX
NCI/ADR-RES = test system: NCI/ADR-RES
786-0 = test system: 786-0
MDA-N = test system: MDA-N
RPMI-8226 = test system: RPMI-8226
SF-539 = test system: SF-539
HOP-62 = test system: HOP-62
UACC-257 = test system: UACC-257
SW-620 = test system: SW-620
OVCAR-3 = test system: OVCAR-3
SN12C = test system: SN12C
A549 = test system: A549
SF-268 = test system: SF-268
MDA-MB-435 = test system: MDA-MB-435
U-251 = test system: U-251
OVCAR-8 = test system: OVCAR-8
HCC 2998 = test system: HCC 2998
TK-10 = test system: TK-10
ACHN = test system: ACHN
SK-MEL-2 = test system: SK-MEL-2
CCRF-CEM = test system: CCRF-CEM
SNB-75 = test system: SNB-75
Hs-578T = test system: Hs-578T
HCT-15 = test system: HCT-15
A498 = test system: A498
PC-3 = test system: PC-3
T47D = test system: T47D
DU-145 = test system: DU-145
IGROV-1 = test system: IGROV-1
OVCAR-5 = test system: OVCAR-5
KM12 = test system: KM12
K562 = test system: K562
OVCAR-4 = test system: OVCAR-4
MOLT-4 = test system: MOLT-4
NCI-H460 = test system: NCI-H460
UO-31 = test system: UO-31
SR = test system: SR
COLO 205 = test system: COLO 205
NCI-H23 = test system: NCI-H23
RXF 393 = test system: RXF 393
HL-60 = test system: HL-60
HCT-116 = test system: HCT-116
NCI-H226 = test system: NCI-H226
CAKI-1 = test system: CAKI-1
SK-MEL-28 = test system: SK-MEL-28
SK-OV-3 = test system: SK-OV-3
SNB-19 = test system: SNB-19
MCF7 = test system: MCF7
UACC-62 = test system: UACC-62
LOX IMVI = test system: LOX IMVI

COC(=O)c1cnc(Cl)c([N+](=O)[O-])c1
GI50 (M14): 14 µM (inactive) | GI50 (NCI-H522): 1.64 µM (inactive) | GI50 (SK-MEL-5): 14.1 µM (inactive) | GI50 (MDA-MB-231): 16.3 µM (inactive) | GI50 (HOP-92): 2.17 µM (inactive) | GI50 (SF-295): 19 µM (inactive) | GI50 (HT-29): 14.3 µM (inactive) | GI50 (BT-549): 17.9 µM (inactive) | GI50 (EKVX): 1.8 µM (inactive) | GI50 (NCI/ADR-RES): 22.4 µM (inactive) | GI50 (786-0): 3.57 µM (inactive) | GI50 (MDA-N): 7.6 µM (inactive) | GI50 (RPMI-8226): 2.52 µM (inactive) | GI50 (SF-539): 16.6 µM (inactive) | GI50 (HOP-62): 19.1 µM (inactive) | GI50 (UACC-257): 7.41 µM (inactive) | GI50 (SW-620): 2.03 µM (inactive) | GI50 (OVCAR-3): 14.8 µM (inactive) | GI50 (SN12C): 12.9 µM (inactive) | GI50 (A549): 20.6 µM (inactive) | GI50 (SF-268): 2.64 µM (inactive) | GI50 (MDA-MB-435): 6.22 µM (inactive) | GI50 (U-251): 2.16 µM (inactive) | GI50 (OVCAR-8): 2.03 µM (inactive) | GI50 (HCC 2998): 8.34 µM (inactive) | GI50 (TK-10): 16.3 µM (inactive) | GI50 (ACHN): 12.6 µM (inactive) | GI50 (SK-MEL-2): 16.1 µM (inactive) | GI50 (CCRF-CEM): 2.11 µM (inactive) | GI50 (SNB-75): 20.4 µM (inactive) | GI50 (Hs-578T): 22.4 µM (inactive) | GI50 (HCT-15): 2 µM | GI50 (A498): 21.4 µM (inactive) | GI50 (PC-3): 10.7 µM (inactive) | GI50 (T47D): 2.09 µM (inactive) | GI50 (DU-145): 9.57 µM (inactive) | GI50 (IGROV-1): 2.79 µM (inactive) | GI50 (OVCAR-5): 17.7 µM (inactive) | GI50 (KM12): 17.4 µM (inactive) | GI50 (K562): 2.44 µM (inactive) | GI50 (OVCAR-4): 21.1 µM (inactive) | GI50 (MOLT-4): 2.42 µM (inactive) | GI50 (NCI-H460): 14.7 µM (inactive) | GI50 (UO-31): 1.96 µM (inactive) | GI50 (SR): 1.9 µM (inactive) | GI50 (COLO 205): 3.54 µM (inactive) | GI50 (NCI-H23): 17.3 µM (inactive) | GI50 (RXF 393): 12 µM (inactive) | GI50 (HL-60): 2.42 µM (inactive) | GI50 (HCT-116): 2.77 µM (inactive) | GI50 (NCI-H226): 16.9 µM (inactive) | GI50 (CAKI-1): 11.2 µM (inactive) | GI50 (SK-MEL-28): 17.1 µM (inactive) | GI50 (SK-OV-3): 19.3 µM (inactive) | GI50 (SNB-19): 18.5 µM (inactive) | GI50 (MCF7): 2.12 µM (inactive) | GI50 (UACC-62): 16.8 µM (inactive) | GI50 (LOX IMVI): 1.93 µM (inactive)

Cc1ccc2sc3ccc(N)cc3c(=O)c2c1
GI50 (M14): 90.2 µM (inactive) | GI50 (NCI-H522): 30.3 µM (inactive) | GI50 (SK-MEL-5): 51.9 µM (inactive) | GI50 (MDA-MB-231): 86.7 µM (inactive) | GI50 (HOP-92): 32.9 µM (inactive) | GI50 (SF-295): 40.4 µM (inactive) | GI50 (HT-29): 30.2 µM (inactive) | GI50 (BT-549): 51.9 µM (inactive) | GI50 (EKVX): 21.1 µM (inactive) | GI50 (NCI/ADR-RES): 53.2 µM (inactive) | GI50 (786-0): 54.5 µM (inactive) | GI50 (MDA-N): 26.8 µM (inactive) | GI50 (SF-539): 53.2 µM (inactive) | GI50 (HOP-62): 32.8 µM (inactive) | GI50 (UACC-257): > 100 µM (inactive) | GI50 (SW-620): 62.1 µM (inactive) | GI50 (OVCAR-3): 32 µM (inactive) | GI50 (SN12C): 81.1 µM (inactive) | GI50 (A549): 54.2 µM (inactive) | GI50 (SF-268): > 100 µM (inactive) | GI50 (MDA-MB-435): 36.9 µM (inactive) | GI50 (U-251): 61.2 µM (inactive) | GI50 (OVCAR-8): > 100 µM (inactive) | GI50 (HCC 2998): 37.2 µM (inactive) | GI50 (TK-10): > 100 µM (inactive) | GI50 (ACHN): 37.8 µM (inactive) | GI50 (SK-MEL-2): 53.6 µM (inactive) | GI50 (CCRF-CEM): 40.3 µM (inactive) | GI50 (Hs-578T): 47.2 µM (inactive) | GI50 (HCT-15): 24.8 µM | GI50 (A498): 22.4 µM (inactive) | GI50 (PC-3): 55.1 µM (inactive) | GI50 (T47D): 14.9 µM (inactive) | GI50 (DU-145): 53 µM (inactive) | GI50 (IGROV-1): 33.8 µM (inactive) | GI50 (OVCAR-5): > 100 µM (inactive) | GI50 (KM12): 20.7 µM (inactive) | GI50 (K562): 37.6 µM (inactive) | GI50 (OVCAR-4): 63.5 µM (inactive) | GI50 (MOLT-4): 11.4 µM (inactive) | GI50 (NCI-H460): 41.3 µM (inactive) | GI50 (UO-31): 29 µM (inactive) | GI50 (SR): 68.2 µM (inactive) | GI50 (COLO 205): 42.5 µM (inactive) | GI50 (NCI-H23): 81.8 µM (inactive) | GI50 (RXF 393): 38.5 µM (inactive) | GI50 (HL-60): 33.7 µM (inactive) | GI50 (HCT-116): 33.8 µM (inactive) | GI50 (NCI-H226): 82.4 µM (inactive) | GI50 (CAKI-1): 30.7 µM (inactive) | GI50 (SK-MEL-28): > 100 µM (inactive) | GI50 (SK-OV-3): 41.6 µM (inactive) | GI50 (SNB-19): > 100 µM (inactive) | GI50 (MCF7): 26.5 µM (inactive) | GI50 (UACC-62): 51.9 µM (inactive) | GI50 (LOX IMVI): 28.1 µM (inactive)
